ChEMBL document CHEMBL6092203, “Discovery of Novel PROTAC-Based HPK1 Degraders with High Potency and Selectivity for Cancer Immunotherapy” (J Med Chem, 2024)

How the values were obtained:
[1] = target: T1, Protein cereblon/Mitogen-activated protein kinase kinase kinase kinase 1 (Homo sapiens, UniProt Q92918+Q96SW2); assay: PROTAC activity at CRBN/HPK1 in human Jurkat cells incubated for 24 hrs by Western blotting analysis; format: cell-based
Target sequence in this assay (Q92918 whole entry): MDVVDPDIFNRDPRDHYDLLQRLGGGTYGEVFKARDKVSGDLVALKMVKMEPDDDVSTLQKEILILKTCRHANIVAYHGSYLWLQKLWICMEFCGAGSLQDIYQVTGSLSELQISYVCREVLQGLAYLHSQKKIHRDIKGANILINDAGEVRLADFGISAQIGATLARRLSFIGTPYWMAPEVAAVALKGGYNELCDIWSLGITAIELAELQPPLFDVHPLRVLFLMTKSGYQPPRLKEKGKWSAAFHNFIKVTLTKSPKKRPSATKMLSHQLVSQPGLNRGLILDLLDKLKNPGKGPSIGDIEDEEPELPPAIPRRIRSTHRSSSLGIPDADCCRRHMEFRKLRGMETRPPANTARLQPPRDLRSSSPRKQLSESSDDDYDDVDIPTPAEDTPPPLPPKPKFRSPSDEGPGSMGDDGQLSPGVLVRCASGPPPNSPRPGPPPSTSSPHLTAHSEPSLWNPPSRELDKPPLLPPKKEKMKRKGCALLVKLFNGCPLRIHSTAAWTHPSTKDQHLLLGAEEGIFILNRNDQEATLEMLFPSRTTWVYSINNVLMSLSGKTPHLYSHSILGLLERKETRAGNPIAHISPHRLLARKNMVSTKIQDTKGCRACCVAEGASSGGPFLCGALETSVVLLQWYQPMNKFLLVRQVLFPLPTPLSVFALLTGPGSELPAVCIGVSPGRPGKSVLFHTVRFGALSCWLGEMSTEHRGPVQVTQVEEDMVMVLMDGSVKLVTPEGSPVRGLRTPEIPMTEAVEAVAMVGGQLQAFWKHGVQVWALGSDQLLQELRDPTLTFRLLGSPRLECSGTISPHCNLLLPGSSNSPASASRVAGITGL
Target sequence in this assay (Q96SW2 whole entry): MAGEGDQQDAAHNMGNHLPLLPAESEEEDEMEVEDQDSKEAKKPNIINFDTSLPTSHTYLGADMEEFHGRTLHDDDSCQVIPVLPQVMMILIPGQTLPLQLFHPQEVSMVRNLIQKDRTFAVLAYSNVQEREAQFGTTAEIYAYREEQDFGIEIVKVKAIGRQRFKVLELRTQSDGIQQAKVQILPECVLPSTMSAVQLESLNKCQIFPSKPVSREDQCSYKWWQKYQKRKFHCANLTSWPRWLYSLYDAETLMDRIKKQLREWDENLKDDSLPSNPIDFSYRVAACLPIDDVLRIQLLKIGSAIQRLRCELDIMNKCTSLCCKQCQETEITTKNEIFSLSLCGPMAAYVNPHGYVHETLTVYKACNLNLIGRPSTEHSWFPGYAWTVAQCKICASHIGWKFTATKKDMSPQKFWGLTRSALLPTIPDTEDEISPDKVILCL

[2] = target: T1, Protein cereblon/Mitogen-activated protein kinase kinase kinase kinase 1; assay: PROTAC activity at CRBN/HPK1 in human Jurkat cells assessed as maximum degradation incubated for 24 hrs by Western blotting analysis; format: cell-based
Target sequence in this assay (Q92918 whole entry, looked up): as the sequence (Q92918 whole entry) above
Target sequence in this assay (Q96SW2 whole entry, looked up): as the sequence (Q96SW2 whole entry) above

[3] = Half-life in mouse at 10 mg/kg measured upto 24 hrs by LC-MS analysis; format: ADME, organism-based; settings: in vivo
[4] = Cmax in mouse at 10 mg/kg, po measured upto 24 hrs by LC-MS analysis; format: ADME, organism-based; settings: in vivo
[5] = AUC in mouse at 10 mg/kg, po measured upto 24 hrs by LC-MS analysis; format: ADME, organism-based; settings: in vivo
[6] = Apparent volume of distribution in mouse at 2 mg/kg, iv measured upto 24 hrs by LC-MS analysis; format: ADME, organism-based; settings: in vivo
[7] = Clearance in mouse at 2 mg/kg, iv measured upto 24 hrs by LC-MS analysis; format: ADME, organism-based; settings: in vivo
[8] = Half-life in mouse at 2 mg/kg, iv measured upto 24 hrs by LC-MS analysis; format: ADME, organism-based; settings: in vivo
[9] = AUC in mouse at 2 mg/kg, iv measured upto 24 hrs by LC-MS analysis; format: ADME, organism-based; settings: in vivo
[10] = Oral bioavailability in mouse at 10 mg/kg measured upto 24 hrs by LC-MS analysis; format: ADME, organism-based; settings: in vivo
[11] = target: T2, Mitogen-activated protein kinase kinase kinase kinase 3 (Homo sapiens, UniProt Q8IVH8); assay: Inhibition of GLK (unknown origin)
T2 sequence (Q8IVH8 whole entry): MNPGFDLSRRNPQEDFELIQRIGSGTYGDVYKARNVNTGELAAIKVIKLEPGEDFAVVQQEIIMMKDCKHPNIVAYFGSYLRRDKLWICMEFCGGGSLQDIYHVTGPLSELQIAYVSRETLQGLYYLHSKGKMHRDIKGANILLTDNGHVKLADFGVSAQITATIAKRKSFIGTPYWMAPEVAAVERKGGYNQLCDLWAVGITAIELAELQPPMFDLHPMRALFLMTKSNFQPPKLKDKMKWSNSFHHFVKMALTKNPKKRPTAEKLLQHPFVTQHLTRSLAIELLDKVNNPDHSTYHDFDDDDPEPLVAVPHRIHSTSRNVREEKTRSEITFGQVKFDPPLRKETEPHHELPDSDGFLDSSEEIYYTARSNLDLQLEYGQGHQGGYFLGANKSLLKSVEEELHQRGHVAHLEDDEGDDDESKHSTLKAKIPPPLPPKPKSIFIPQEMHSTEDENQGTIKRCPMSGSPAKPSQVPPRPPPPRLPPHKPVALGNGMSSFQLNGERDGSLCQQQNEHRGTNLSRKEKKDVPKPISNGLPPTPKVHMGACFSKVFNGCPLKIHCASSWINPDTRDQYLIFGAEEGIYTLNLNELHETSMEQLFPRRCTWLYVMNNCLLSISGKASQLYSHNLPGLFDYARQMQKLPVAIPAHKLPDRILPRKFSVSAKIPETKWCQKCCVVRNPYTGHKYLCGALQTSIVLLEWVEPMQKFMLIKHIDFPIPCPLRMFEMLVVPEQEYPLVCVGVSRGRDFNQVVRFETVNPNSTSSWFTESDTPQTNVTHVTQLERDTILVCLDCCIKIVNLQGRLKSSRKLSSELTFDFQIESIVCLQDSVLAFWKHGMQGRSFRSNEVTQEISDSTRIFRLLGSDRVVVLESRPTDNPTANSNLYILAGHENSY

[12] = target: Mitogen-activated protein kinase kinase kinase kinase 1 (Homo sapiens, UniProt Q92918); assay: Inhibition of HPK1 (unknown origin)
Chain of Mitogen-activated protein kinase kinase kinase kinase 1 (Q92918 whole entry): as the sequence (Q92918 whole entry) above

DC50 [1] [nM]	Emax [2] [%]	SMILES	further results
632	52	O=C1CCN(c2cc(C(=O)N3CCC(CC4CCN(c5ccc(-c6cnc7[nH]cc(-c8cnn(CC9CC9)c8)c7n6)cn5)CC4)CC3)ccc2Cl)C(=O)N1	
9.3	93	Cn1cc(-c2c[nH]c3ncc(-c4ccc(N5CCC(CC6CCN(C(=O)c7ccc(Cl)c(N8CCC(=O)NC8=O)c7)CC6)CC5)nc4)nc23)cn1	half-life [3]: 3.35 h; Cmax [4]: 840 ng/mL; AUC at 24 h [5]: 2210 ng·h/mL; Vz [6]: 0.701 L/kg; Emax ([2]; tested as the 2H-labelled form): 89%; clearance [7]: 8.27 mL/min/kg; half-life [8]: 0.98 h; AUC at 24 h [9]: 4030 ng·h/mL; bioavailability [10]: 17.7%
55	86	CCN1CCC(n2cc(-c3c[nH]c4ncc(-c5cnc(OCCNC(=O)c6ccc(Cl)c(N7CCC(=O)NC7=O)c6)c(C)c5)nc34)cn2)CC1	
23.9	67	O=C1CCN(c2cc(C(=O)N3CCC(CC4CCN(c5ccc(-c6cnc7[nH]cc(-c8cnn(C(F)F)c8)c7n6)cn5)CC4)CC3)ccc2Cl)C(=O)N1	
29	84	O=C1CCN(c2cc(C(=O)N3CCC(CC4CCN(c5ccc(-c6cnc7[nH]cc(-c8cnn(CCO)c8)c7n6)cn5)CC4)CC3)ccc2Cl)C(=O)N1	
386	52	CCN1CCC(n2cc(-c3c[nH]c4ncc(-c5ccc(N6CCC(OC7CCN(C(=O)c8ccc(Cl)c(N9CCC(=O)NC9=O)c8)CC7)CC6)cc5)nc34)cn2)CC1	
18.7	81	O=C1CCN(c2cc(C(=O)N3CCC(CC4CCN(c5ccc(-c6cnc7[nH]cc(-c8cnn(CC(F)F)c8)c7n6)cn5)CC4)CC3)ccc2Cl)C(=O)N1	
29.3	73	CCN1CCC(n2cc(-c3c[nH]c4ncc(-c5ccc(N6CCC(OC7CCN(C(=O)c8ccc(Cl)c(N9CCC(=O)NC9=O)c8)CC7)CC6)c(C)c5)nc34)cn2)CC1	
214	64	CC(C)(C#N)n1cc(-c2c[nH]c3ncc(-c4ccc(N5CCC(CC6CCN(C(=O)c7ccc(Cl)c(N8CCC(=O)NC8=O)c7)CC6)CC5)nc4)nc23)cn1	
176	63	CCN1CCC(n2cc(-c3c[nH]c4ncc(-c5ccc(N6CCC(CC7CCN(C(=O)c8ccc(Cl)c(N9CCC(=O)NC9=O)c8)CC7)CC6)c(F)c5)nc34)cn2)CC1	
7.2	78	CCN1CCC(n2cc(-c3c[nH]c4ncc(-c5ccc(N6CCC(OC7CCN(C(=O)c8ccc(Cl)c(N9CCC(=O)NC9=O)c8)CC7)CC6)c(F)c5)nc34)cn2)CC1	
12.7		[2H]C([2H])([2H])n1cc(-c2c[nH]c3ncc(-c4ccc(N5CCC(CC6CCN(C(=O)c7ccc(Cl)c(N8CCC(=O)NC8=O)c7)CC6)CC5)nc4)nc23)cn1	
616	53	CCN1CCC(n2cc(-c3c[nH]c4ncc(-c5ccc(N6CCC(CC7CCN(C(=O)c8ccc(C)c(N9CCC(=O)NC9=O)c8)CC7)CC6)cc5)nc34)cn2)CC1	
83	84	O=C1CCN(c2cc(C(=O)N3CCC(CC4CCN(c5ccc(-c6cnc7[nH]cc(-c8cnn([C@@H]9CCOC9)c8)c7n6)cn5)CC4)CC3)ccc2Cl)C(=O)N1	
30.6	76	COCCn1cc(-c2c[nH]c3ncc(-c4ccc(N5CCC(CC6CCN(C(=O)c7ccc(Cl)c(N8CCC(=O)NC8=O)c7)CC6)CC5)nc4)nc23)cn1	
29.2	87	CCn1cc(-c2c[nH]c3ncc(-c4ccc(N5CCC(CC6CCN(C(=O)c7ccc(Cl)c(N8CCC(=O)NC8=O)c7)CC6)CC5)nc4)nc23)cn1	
5.3	78	O=C1CCN(c2cc(C(=O)N3CCC(CC4CCN(c5ccc(-c6cnc7[nH]cc(-c8cnn(CCF)c8)c7n6)cn5)CC4)CC3)ccc2Cl)C(=O)N1	half-life [3]: 3.18 h; Cmax [4]: 4680 ng/mL; AUC at 24 h [5]: 9200 ng·h/mL; Vz [6]: 0.917 L/kg; clearance [7]: 4.5 mL/min/kg; half-life [8]: 2.35 h; AUC at 24 h [9]: 7400 ng·h/mL; bioavailability [10]: 25.1%
385	56	CCN1CCC(n2cc(-c3c[nH]c4ncc(-c5ccc(N6CCC(CC7CCCN(C(=O)c8ccc(Cl)c(N9CCC(=O)NC9=O)c8)CC7)CC6)nc5)nc34)cn2)CC1 (stereo not given)	
		CCN1CCC(n2cc(-c3c[nH]c4ncc(-c5cnc(OCC6CCOCC6)c(F)c5)nc34)cn2)CC1	IC50 [11]: 63.6 nM; IC50 [12]: 2.67 nM
230	58	CCN1CCC(n2cc(-c3c[nH]c4ncc(-c5ccc(N6CCC(F)(CN7CCN(C(=O)c8ccc(Cl)c(N9CCC(=O)NC9=O)c8)CC7)CC6)cc5)nc34)cn2)CC1	
1.2	93	CCN1CCC(n2cc(-c3c[nH]c4ncc(-c5ccc(N6CCC(CC7CCN(C(=O)c8ccc(Cl)c(N9CCC(=O)NC9=O)c8)CC7)CC6)nc5)nc34)cn2)CC1	Cmax [4]: 81.6 ng/mL; AUC at 24 h [5]: 295 ng·h/mL; Vz [6]: 1.03 L/kg; clearance [7]: 27.5 mL/min/kg; half-life [8]: 4.63 h; AUC at 24 h [9]: 874 ng·h/mL; bioavailability [10]: 6.67%
52.4	81	CCN1CCC(n2cc(-c3c[nH]c4ncc(-c5ccc(N6CCC(C)(CN7CCN(C(=O)c8ccc(Cl)c(N9CCC(=O)NC9=O)c8)CC7)CC6)cc5)nc34)cn2)CC1	
23.5	66	CCN1CCC(n2cc(-c3c[nH]c4ncc(-c5ccc(N6CCC(CC7CCN(C(=O)c8ccc(Cl)c(N9CCC(=O)NC9=O)c8)CC7C)CC6)cc5)nc34)cn2)CC1 (stereo not given)	
2.1	77	CCN1CCC(n2cc(-c3c[nH]c4ncc(-c5ccc(N6CCC(CN7CCN(C(=O)c8ccc(Cl)c(N9CCC(=O)NC9=O)c8)CC7)CC6)nc5)nc34)cn2)CC1	
32.9	92	O=C1CCN(c2cc(C(=O)N3CCC(CC4CCN(c5ccc(-c6cnc7[nH]cc(-c8cn[nH]c8)c7n6)cn5)CC4)CC3)ccc2Cl)C(=O)N1	
52.3	87	O=C1CCN(c2cc(C(=O)N3CCC(CC4CCN(c5ccc(-c6cnc7[nH]cc(-c8cnn(C9CC9)c8)c7n6)cn5)CC4)CC3)ccc2Cl)C(=O)N1	
